# Results: patent US7411083B2, “Substituted acetic acid derivatives” (Wyeth, priority 2003, dated 2008)
# Biological target: T1, recombinant human plasminogen activator inhibitor-1 (PAI-1) (Homo sapiens, UniProt P05121)
# T1 construct: purchased Molecular Innovations, Royal Oak, Mich
# Assay: Screening for PAI-1 inhibition (residual tPA activity, Spectrozyme-tPA chromogenic substrate)
# Format: biochemical
# Conditions: test compound at 100 Um; pH 6.6 buffer, 140 nM PAI-1, 70 nM tPA
# In short: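 PAI-1 at 140 nM, pH 6.6 buffer, preincubated 1 h at room temperature with compound (1-100 μM final, ≤0.2% DMSO), then 70 nM tPA added for 30 min. Residual tPA activity read by Spectrozyme-tPA absorbance at 405 nm at 0 and 60 min. Inhibition taken as residual tPA activity.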
# T1 sequence (P05121 24-402): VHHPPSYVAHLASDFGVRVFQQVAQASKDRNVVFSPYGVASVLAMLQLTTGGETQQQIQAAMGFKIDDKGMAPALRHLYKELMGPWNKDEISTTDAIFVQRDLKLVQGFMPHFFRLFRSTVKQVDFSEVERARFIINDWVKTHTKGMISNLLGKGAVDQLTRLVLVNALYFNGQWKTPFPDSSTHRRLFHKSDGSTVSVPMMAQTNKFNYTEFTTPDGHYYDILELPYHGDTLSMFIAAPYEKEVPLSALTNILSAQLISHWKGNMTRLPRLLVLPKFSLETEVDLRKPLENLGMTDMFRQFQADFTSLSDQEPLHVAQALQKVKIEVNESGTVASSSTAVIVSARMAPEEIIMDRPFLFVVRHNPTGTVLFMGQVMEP
row,SMILES,inhibition at 100 µM [%]
1,"Cc1ccc(COc2ccc(OCc3ccc(C)cc3)c(/C=N/OCC(=O)O)c2)cc1 [Compound 160, {[((1E)-{2,5-bis[(4-methylbenzyl)oxy]phenyl}methylidene)amino]oxy}acetic acid]",76
2,"O=C(O)CO/N=C/c1ccc(C#CCOc2cccc(Cl)c2)cc1 [Compound 166, {[((1E)-{4-[3-(3-chlorophenoxy)prop-1-ynyl]phenyl}methylidene)amino]oxy}acetic acid]",42
3,"Cn1cc(/C=N/OCC(=O)O)c2cc(OCc3ccc(C(C)(C)C)cc3)ccc21 [Compound 34, {[((1E)-{5-[(4-tert-butylbenzyl)oxy]-1-methyl-1H-indol-3-yl}methylidene)amino]oxy}acetic acid]",88
4,"CC(C)(C)c1ccc(COc2cccc(/C=N/OCC(=O)O)c2OCc2ccc(C(C)(C)C)cc2)cc1 [Compound 135, {[((1E)-{2,3-bis[(4-tert-butylbenzyl)oxy]phenyl}methylidene)amino]oxy}acetic acid]",58
5,"O=C(O)CO/N=C/c1ccc(C#CCOc2cc(C(F)(F)F)cc(C(F)(F)F)c2)cc1 [Compound 164, ({[(1E)-(4-{3-[3,5-bis(trifluoromethyl)phenoxy]prop-1-ynyl}phenyl)methylidene]amino}oxy) acetic acid]",73
6,"O=C(O)CO/N=C/c1cc(OCc2ccc(Br)cc2)cc(OCc2ccc(Br)cc2)c1 [Compound 145, {[((1E)-{3,5-bis[(4-bromobenzyl)oxy]phenyl}methylidene)amino]oxy}acetic acid]",100
7,"Cc1ccc(COc2ccc(/C=N/OCC(=O)O)c(OCc3ccc(C)cc3)c2)cc1 [Compound 122, {[((1E)-{2,4-bis[(4-methylbenzyl)oxy]phenyl}methylidene)amino]oxy}acetic acid]",87
8,"C=CCn1cc(/C=N/OCC(=O)O)c2cc(OCc3ccc(Br)cc3)ccc21 [Compound 7, {[((1E)-{1-allyl-5-[(4-bromobenzyl)oxy]-1H-indol-3-yl}methylidene)amino]oxy}acetic acid]",83
9,"Cc1ccc(COc2cccc(/C=N/OCC(=O)O)c2OCc2ccc(C)cc2)cc1 [Compound 140, {[((1E)-{2,3-bis[(4-methylbenzyl)oxy]phenyl}methylidene)amino]oxy}acetic acid]",94
10,"O=C(O)CO/N=C/c1ccc(OCc2ccc(F)cc2)cc1OCc1ccc(F)cc1 [Compound 123, {[((1E)-{2,4-bis[(4-fluorobenzyl)oxy]phenyl}methylidene)amino]oxy}acetic acid]",72
11,"O=C(O)CO/N=C/c1cc(OCc2ccc(F)c(F)c2)ccc1OCc1ccc(F)c(F)c1 [Compound 161, {[((1E)-{2,5-bis[(3,4-difluorobenzyl)oxy]phenyl}methylidene)amino]oxy}acetic acid]",92
12,"Cn1cc(/C=N/OCC(=O)O)c2cc(OCc3ccc(Cl)c(Cl)c3)ccc21 [Compound 54, {[((1E)-{5-[(3,4-dichlorobenzyl)oxy]-1-methyl-1H-indol-3-yl}methylidene)amino]oxy}acetic acid]",91

# Second part, the compound after the results:
row,inhibition at 100 µM [%],SMILES
1,100,"O=C(O)CO/N=C/c1cccc(OCc2ccc(C(F)(F)F)cc2)c1OCc1ccc(C(F)(F)F)cc1 [Compound 134, ({[(1E)-(2,3-bis{[4-(trifluoromethyl)benzyl]oxy}phenyl)methylidene]amino}oxy)acetic acid]"
2,8,"O=C(O)CO/N=C/c1ccc(-c2ccc(OCc3cccc(C(F)(F)F)c3)cc2)cc1 [Compound 106, ({[(1E)-(4′-{[3-(trifluoromethyl)benzyl]oxy}-1,1′-biphenyl-4-yl)methylidene]amino}oxy)acetic acid]"
3,91,"O=C(O)CO/N=C/c1cccc(-c2cccc(OCc3cccc(Cl)c3)c2)c1 [Compound 63, {[((1E)-{3′-[(3-chlorobenzyl)oxy]-1,1′-biphenyl-3-yl}methylidene)amino]oxy}acetic acid]"
4,7,"Cc1ccc(COc2ccc(-c3ccc(/C=N/OCC(=O)O)cc3)cc2)cc1 [Compound 109, {[((1E)-{4′-[(4-methylbenzyl)oxy]-1,1′-biphenyl-4-yl}methylidene)amino]oxy}acetic acid]"
5,30,"O=C(O)CO/N=C/c1ccc(-c2ccc(OCc3ccccc3Cl)cc2)cc1 [Compound 107, {[((1E)-{4′-[(2-chlorobenzyl)oxy]-1,1′-biphenyl-4-yl}methylidene)amino]oxy}acetic acid]"
6,30,"O=C(O)CO/N=C/c1ccc(-c2cccc(OCc3cc(C(F)(F)F)cc(C(F)(F)F)c3)c2)cc1 [Compound 90, ({[(1E)-(3′-{[3,5-bis(trifluoromethyl)benzyl]oxy}-1,1′-biphenyl-4-yl)methylidene]amino}oxy)acetic acid]"
7,89,"O=C(O)CO/N=C/c1cccc(-c2ccc(OCc3ccccc3Cl)cc2)c1 [Compound 82, {[((1E)-{4′-[(2-chlorobenzyl)oxy]-1,1′-biphenyl-3-yl}methylidene)amino]oxy}acetic acid]"
8,90,"C#CCn1cc(/C=N/OCC(=O)O)c2cc(OCc3ccc(C(F)(F)F)cc3)ccc21 [Compound 31, ({[(1E)-(1-(2-propynyl)-5-{[4-(trifluoromethyl)benzyl]oxy}-1H-indol-3-yl)methylidene]amino}oxy)acetic acid]"
9,90,"Cc1ccc(COc2cc(/C=N/OCC(=O)O)cc(OCc3ccc(C)cc3)c2)cc1 [Compound 150, {[((1E)-{3,5-bis[(4-methylbenzyl)oxy]phenyl}methylidene)amino]oxy}acetic acid]"
10,26,"CC(C)(C)c1ccc(COc2ccc(-c3ccc(/C=N/OCC(=O)O)cc3)cc2)cc1 [Compound 102, {[((1E)-{4′-[(4-tert-butylbenzyl)oxy]-1,1′-biphenyl-4-yl}methylidene)amino]oxy}acetic acid]"
11,85,"Cc1cccc(COc2cccc(-c3cccc(/C=N/OCC(=O)O)c3)c2)c1 [Compound 71, {[((1E)-{3′-[(3-methylbenzyl)oxy]-1,1′-biphenyl-3-yl}methylidene)amino]oxy}acetic acid]"
12,44,"O=C(O)CO/N=C/c1cccc(C#CCOc2cccc(Cl)c2)c1 [Compound 172, {[((1E)-{3-[3-(3-chlorophenoxy)prop-1-ynyl]phenyl}methylidene)amino]oxy}acetic acid]"
13,69,"O=C(O)CO/N=C/c1cc(OCc2cccc(Br)c2)ccc1OCc1cccc(Br)c1 [Compound 158, {[((1E)-{2,5-bis[(3-bromobenzyl)oxy]phenyl}methylidene)amino]oxy}acetic acid]"
14,92,"O=C(O)CO/N=C/c1ccc(OCc2cccc(Cl)c2)c(OCc2cccc(Cl)c2)c1 [Compound 116, {[((1E)-{3,4-bis[(3-chlorobenzyl)oxy]phenyl}methylidene)amino]oxy}acetic acid]"
15,81,"C=CCn1cc(/C=N/OCC(=O)O)c2cc(OCc3ccc4ccccc4c3)ccc21 [Compound 55, [({(1E)-[1-allyl-5-(2-naphthylmethoxy)-1H-indol-3-yl]methylidene}amino)oxy]acetic acid]"
16,78,"O=C(O)CO/N=C/c1cccc(-c2ccc(OCc3cccc(C(F)(F)F)c3)cc2)c1 [Compound 80, ({[(1E)-(4′-{[3-(trifluoromethyl)benzyl]oxy}-1,1′-biphenyl-3-yl)methylidene]amino}oxy)acetic acid]"
